For experiment [1], the target named is T1, Rac GTPase-activating protein 1 (Homo sapiens, UniProt Q9H0H5).
T1 sequence (Q9H0H5 whole entry): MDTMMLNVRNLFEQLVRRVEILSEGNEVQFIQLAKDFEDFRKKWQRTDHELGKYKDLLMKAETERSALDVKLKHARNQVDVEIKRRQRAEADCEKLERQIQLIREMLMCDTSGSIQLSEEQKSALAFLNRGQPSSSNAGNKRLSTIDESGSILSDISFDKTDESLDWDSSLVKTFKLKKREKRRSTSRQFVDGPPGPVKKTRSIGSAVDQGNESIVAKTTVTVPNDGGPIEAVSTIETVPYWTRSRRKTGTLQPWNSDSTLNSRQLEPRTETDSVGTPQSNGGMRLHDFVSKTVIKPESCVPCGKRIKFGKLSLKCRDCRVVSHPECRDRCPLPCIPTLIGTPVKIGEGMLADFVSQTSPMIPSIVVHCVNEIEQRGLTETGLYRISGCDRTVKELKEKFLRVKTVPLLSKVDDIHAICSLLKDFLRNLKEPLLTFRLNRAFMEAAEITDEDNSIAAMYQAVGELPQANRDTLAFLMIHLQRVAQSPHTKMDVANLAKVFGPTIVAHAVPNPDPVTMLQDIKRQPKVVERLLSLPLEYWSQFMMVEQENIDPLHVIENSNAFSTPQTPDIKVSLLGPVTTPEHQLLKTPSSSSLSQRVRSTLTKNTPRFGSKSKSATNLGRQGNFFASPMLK
Kind of experiment: MgcRacGAP GTPase-activating activity inhibitors, confirmation, biochemical, ADP Hunter fluorescence, primary and confirmatory (AID 624330). It is filed as functional.

The nature of experiment [2]: microbe, parasite or virus in culture. It is filed as functional. The settings on record: Mycobacterium tuberculosis.
The target in experiment [3] is T2, Protein skinhead-1 (Caenorhabditis elegans, UniProt P34707).
T2 sequence (P34707 whole entry): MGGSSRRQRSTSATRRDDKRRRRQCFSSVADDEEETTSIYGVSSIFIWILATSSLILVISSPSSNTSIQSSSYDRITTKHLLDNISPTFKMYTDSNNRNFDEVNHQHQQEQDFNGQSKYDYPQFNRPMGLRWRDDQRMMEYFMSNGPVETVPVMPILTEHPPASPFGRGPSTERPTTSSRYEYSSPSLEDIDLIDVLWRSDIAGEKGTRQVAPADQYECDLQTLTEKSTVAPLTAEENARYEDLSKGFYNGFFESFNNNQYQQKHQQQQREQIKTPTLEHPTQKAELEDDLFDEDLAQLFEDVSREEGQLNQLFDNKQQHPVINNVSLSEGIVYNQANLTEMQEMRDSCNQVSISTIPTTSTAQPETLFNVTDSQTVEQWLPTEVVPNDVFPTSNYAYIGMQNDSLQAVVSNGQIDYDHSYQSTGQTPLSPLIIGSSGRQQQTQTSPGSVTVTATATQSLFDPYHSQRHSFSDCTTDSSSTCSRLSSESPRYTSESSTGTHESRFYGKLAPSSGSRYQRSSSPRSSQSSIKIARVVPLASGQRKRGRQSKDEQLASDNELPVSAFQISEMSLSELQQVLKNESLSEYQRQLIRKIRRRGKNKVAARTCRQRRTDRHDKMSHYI
It is filed as functional.

Experiment [4] can be described thus: Luminescence Cell-Based Dose Confirmation HTS to Identify Activators of 5'UTR Stem-Loop Driven Alpha-Synuclein mRNA Translation in H4 Neuroglioblastoma Cells. [Related pubchem assays: 1829 (Project Summary), 1814 (Primary HTS)]. Type of experiment: functional.
Experiment [5] in a line: Luminescence Cell-Based Dose Response HTS to Identify Activators of Luciferase Translation or Activity in H4 […] Cells. [Related pubchem assays: 1829 (Project Summary), 1814 (Primary HTS)]. Type of experiment: functional.
In experiment [6] the test system is H4. Kind of experiment: Luminescence Cell-Based Dose Response HTS to Identify Activators of 5'UTR Stem-Loop Driven Prion Protein mRNA Translation in H4 Neuroglioblastoma Cells. [Related pubchem assays: 1829 (Project Summary), 1814 (Primary HTS)]. It is filed as functional. The settings on record: Homo sapiens.
Experiment [7] concerns the target Large T antigen (Simian virus 40, UniProt P03070). Type of experiment: functional, Betapolyomavirus macacae.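 Also: Confirmatory-stage PubChem screen for compounds that inhibit SV40 T antigen.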
Experiment [8] deals with FAD-linked sulfhydryl oxidase ALR (Homo sapiens, UniProt P55789). Kind of experiment: inhibitors of human ALR sulfhydryl oxidase, dose response, biochemical, H2O2 detection, luminescence, cherry-pick (AID 493248).
FAD-linked sulfhydryl oxidase ALR, sequence (P55789 whole entry): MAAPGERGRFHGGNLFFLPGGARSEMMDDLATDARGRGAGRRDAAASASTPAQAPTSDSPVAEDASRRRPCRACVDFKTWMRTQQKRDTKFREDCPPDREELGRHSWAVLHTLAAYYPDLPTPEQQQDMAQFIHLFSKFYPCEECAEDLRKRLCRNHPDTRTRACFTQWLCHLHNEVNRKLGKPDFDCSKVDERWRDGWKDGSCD
Experiment [9] is described as follows: Luminescence Cell-Based Dose Retest to Confirm Inhibitors of Cancer Stem Cells. [Related pubchem assays (depositor defined):AID2717, AID2721]. It is filed as functional. As to conditions: Homo sapiens.

Activity calls are given as the source filed them.

Large T antigen, sequence (P03070 whole entry): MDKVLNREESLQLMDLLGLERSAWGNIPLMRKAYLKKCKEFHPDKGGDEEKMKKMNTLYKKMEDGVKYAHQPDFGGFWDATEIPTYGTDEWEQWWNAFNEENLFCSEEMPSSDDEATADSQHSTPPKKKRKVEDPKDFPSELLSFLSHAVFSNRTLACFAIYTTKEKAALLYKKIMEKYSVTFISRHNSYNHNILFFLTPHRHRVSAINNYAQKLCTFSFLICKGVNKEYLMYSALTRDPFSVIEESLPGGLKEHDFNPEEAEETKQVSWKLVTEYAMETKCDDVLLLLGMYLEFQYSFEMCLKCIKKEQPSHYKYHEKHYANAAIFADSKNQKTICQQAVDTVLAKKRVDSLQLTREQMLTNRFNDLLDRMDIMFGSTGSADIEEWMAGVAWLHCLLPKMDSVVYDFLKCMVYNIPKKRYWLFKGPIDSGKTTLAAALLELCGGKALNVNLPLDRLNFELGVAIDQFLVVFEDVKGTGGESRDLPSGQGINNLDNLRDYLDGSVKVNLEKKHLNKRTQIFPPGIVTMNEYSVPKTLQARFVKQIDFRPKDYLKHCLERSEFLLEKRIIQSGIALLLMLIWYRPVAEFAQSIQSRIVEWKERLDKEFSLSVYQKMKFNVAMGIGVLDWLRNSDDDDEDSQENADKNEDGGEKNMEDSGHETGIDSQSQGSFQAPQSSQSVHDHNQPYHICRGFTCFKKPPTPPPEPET

By IC50 is commonly meant the concentration at which inhibition is half-maximal. Turning to `CN(C)S(=O)(=O)c1cccc(NC(=O)CNCC2CCCCC2)c1`, the half-maximal inhibitory concentration (IC50) in [1] was 115 µM (active).

On to `O=c1c(-c2cnn(-c3ccccc3)c2)coc2cc(O)ccc12`, for which, in experiment [2], the CC50 is > 40 µM (active).

As for `CCN1CCN(c2ncnc3c2c(-c2ccccc2)cn3-c2ccc(F)cc2)CC1`, the IC50 in [3] is 12.6 µM (active).

As to `Cc1cnc(C(=O)N(CCCn2ccnc2)C2C(=O)Nc3ccccc3N=C2c2ccccc2)cn1` (centres undefined), the IC50 in [3] was > 100 µM (inactive).

What is called EC50 is the concentration giving half of the maximal effect. Consider `Nc1nc2c(C(=O)N3CCOCC3)nnn2c2ccccc12`, for which the EC50 is 0.138 µM (active) in experiment [4], 0.203 µM (active) in [5] and 26.9 µM (active) in experiment [6].

Regarding `CCOc1cc(/C=C/c2cc(C(F)(F)F)nc(O)n2)ccc1O`, the concentration for half-maximal inhibition (IC50) in [7] was 13 µM (active).

For `Cc1ccccc1-c1nc(C[S+]([O-])CC(=O)NCc2ccc3c(c2)OCO3)c(C)o1` (centres undefined), in [3], the IC50 is > 100 µM (inactive).

For the compound `COc1cc(/C=N/N=C2/C(=O)Nc3ccccc32)ccc1O`, the IC50 in experiment [7] is 8.73 µM (active).

`O=C(Oc1ccc(N(C(=O)c2ccncc2)S(=O)(=O)c2cccs2)cc1)c1ccncc1`: in experiment [1], the half-inhibitory concentration (IC50) is 86 µM (active).

In the case of `Cc1cc(-n2c(C)cc(C(=O)COc3ccccc3[N+](=O)[O-])c2C)no1`, the results for the EC50 in experiment [4], in experiment [5] and in [6] were 13.5 µM (active), 44.9 µM (active) and > 120 µM (not active), respectively.

Consider `Fc1ccc(-c2nc(-c3cccs3)no2)cc1`, for which the IC50 in experiment [3] was > 100 µM (inactive).

By AC50 is commonly meant the midpoint of the concentration-response curve, whichever way the signal moves. On to `COc1cc(/C=N/NC(=O)CC(=O)NC2CCCCC2)ccc1O`, for which, in experiment [8], the AC50 is 0.175 µM (active). Moreover, the IC50 in experiment [1] was 51.6 µM (active).

As for `COc1ccc(O)c(C(=O)c2cnn(-c3ccccn3)c2)c1`, the EC50 is 15.4 µM (active) in experiment [4], 43.5 µM (active) in [5] and 9.17 µM (active) in experiment [6].

In the case of `CN(C)S(=O)(=O)c1cc(NC(=O)CNCCN2CCOCC2)ccc1Cl`, the IC50 in [1] is 154 µM (active).

Consider `O=C(CN1C(=O)NC2(CCCC2)C1=O)Nc1cc(S(=O)(=O)N2CCOCC2)ccc1OCC(F)(F)F`, for which the IC50 in experiment [3] was > 100 µM (inactive).

On to `COc1cc(-c2nc3ccccn3c2/N=C/c2cc(OC)c(O)cc2Cl)ccc1O`, for which the IC50 in [1] was 69.7 µM (active).

Turning to `c1csc(-c2cn3ccc4ccccc4c3n2)c1`, the EC50 in experiment [5] was 26 µM (active); in experiment [6], 0.106 µM (active). Besides, the IC50 in [3] was 33.6 µM (active).

Consider `Cc1cc(C)n2nc(/C(C#N)=C/c3ccccn3)c(C#N)c2n1`, for which, in experiment [2], the CC50 was > 40 µM (active).

Take `COc1cc(CCC(=O)OCC(=O)Nc2ccc(F)cc2F)cc(OC)c1OC`: the IC50 in experiment [3] is > 100 µM (inactive).

For `O=C(c1ccccc1)c1ccc(OCCOCCN2CCN(Cc3ccccc3)CC2)cc1`, the CC50 in experiment [2] is > 40 µM (active).

Regarding `Cc1ccc(NC(=O)C2=C(O)c3sccc3N(C)S2(=O)=O)cc1`, the values for the EC50 in experiment [4], in experiment [5] and in experiment [6] were 13.2 µM (active), 27.2 µM (active) and > 120 µM (not active), respectively.

On to `Cc1cc(N2CCOCC2)nc2cc(O)ccc12`, for which the EC50 in [4] is 16.2 µM (active); in experiment [5], 6.94 µM (active); in experiment [6] it was > 120 µM (not active).

Take `CCOc1ccc(OCCC(=O)OCC(=O)N2CCN(S(=O)(=O)c3ccc(C)cc3)CC2)cc1`: in [7], the IC50 was 11.1 µM (active).

Turning to `COc1ccc(CN2CCN(Cc3ccco3)CC2)cc1`, the IC50 in experiment [3] was > 100 µM (inactive).

On to `COc1ccccc1/C=C/C(=O)N1CCC(c2ccccc2)C1` (centres undefined), for which the values for the EC50 in [4], in [5] and in experiment [6] were 9.44 µM (active), 27.8 µM (active) and 23.1 µM (active), respectively.

As for `COc1ccc(OS(=O)(=O)Cc2ccccc2)cc1`, the EC50 in experiment [4] is > 120 µM (not active); in experiment [5] it was 10.8 µM (active); in experiment [6], 57.5 µM (active).

In the case of `C/C(CC(=O)Nc1ccc(N(C)C)cc1)=N\NC(=O)c1ccc(F)cc1`, the IC50 in experiment [1] is 47.4 µM (active).

Turning to `Cc1ccc2nc3c(cc(C(=O)NCc4ccco4)c(=N)n3Cc3ccco3)c(=O)n2c1`, the CC50 in experiment [2] was 23.8 µM (active).

Take `OC(CN1CCN(c2ccccn2)CC1)Cn1c2ccccc2c2ccccc21` (centres undefined): in experiment [2], the CC50 is > 40 µM (active).

In the case of `CC(C)(C)c1ccc(-c2nc3nc(O)cc(NC(=O)c4ccco4)n3n2)cc1`, the CC50 in experiment [2] was > 40 µM (active).

For the compound `O=C(CCOc1ccccc1)N1CCN(c2ccc(O)cc2)CC1`, in experiment [7], the half-inhibitory concentration (IC50) was 4.19 µM (active). For the same compound, the AC50 in experiment [9] was 11.3 µM (active).

The values above are taken from ChEMBL document CHEMBL1201862, “PubChem BioAssay data set” (2004).
